Measured values as given in US11813248B2, “NK-1 antagonist compositions and methods for use in treating depression” (priority 2017, dated 2023).

Experiments:
subjects = conditions: in vivo
Protocol: The study was a single center, single-blind study.
Once a subject had reached his/her first intolerable dose (FID-1), upward dose escalation was discontinued.
All other provisions of the protocol remained unchanged. Assessments were the same as those planned for the dose escalation day.
On each study day, subjects were followed up for up to 8 hours following drug administration for AEs, vital signs, ECGs. In addition, a laboratory panel was taken at screening and at the end of the study.

PD patients = conditions: 0.125 to 1.0 mg three times per day; 12 weeks; 296 PD patients; p=0.01 vs placebo; cited from earlier work
[1] = system: patients with a DSM-III-R diagnosis of major depression; conditions: pramipexole 5.0 mg group, cited from earlier work
[2] = system: animal behavior simulating symptoms of depression; conditions: high doses of pramipexole; cited from earlier work

CCCN[C@H]1CCc2nc(N)sc2C1 [Pramipexole, (S)-6-propylamino-4,5,6,7-tetrahydro-1,3-benzothiazole-2-amine]
dose limiting toxicity (subjects): gastro-intestinal adverse events
BDI scores decreased by an adjusted (PD patients): 5.9 (SE 0.5)
patients who completed the study ([1]; 8 weeks of treatment): 42.4%
improvement at week 8 ([1]; change from baseline, no p value because of high drop-out rate): −15.00
patients reported nausea [1]: 76%
patients reported vomiting [1]: 39%
patients discontinued treatment prematurely ([1]; mainly because of adverse events): 57.6%
activity in tests of animal behavior simulating symptoms of depression [2]: active
